Assay results reported in patent publication US11459306B2, “Compounds, compositions, and methods for treating T-cell acute lymphoblastic leukemia” (The Trustees of Columbia University in the City of New York, priority 2017, dated 2022).

What was measured:
[1] = tested on: T-ALL cell line; test: T-ALL cell viability / cell death; assay type: cell-based, murine
Method: Compounds DWL-PI3K-1, DWL-PI3K-2, DWL-PI3K-3, DWL-PI3K-4, DWL-PI3K-5, DWL-PI3K-6 and DWL-PI3K-7, and reference compounds CAL-130, tenalisib, duvelisib were evaluated for efficacy (cell viability by measuring ATP (CellTiter-Glo) or propidium iodide (PI) uptake) against a number of cancer cells, including LMO-2-007, OCI-LY-10, HH, H9, PF382 and CCRF-CEM.

[2] = molecular target: T1, PIK3CG (Homo sapiens, UniProt P48736); test: KINOMEscan competition binding assay (DiscoverX); settings: DiscoveRx gene symbol PIK3CG (b251 prints: PI3Kδ)
T1 construct: purchased DiscoverX (KINOMEscan); host or cells: E. coli BL21-derived host (T7 phage) or HEK-293
Method: (§1) The compounds were tested using KINOMEscan™ (DiscoverX), which is based on a competition binding assay that quantitatively measures the ability of a compound to compete with an immobilized, active-site directed ligand. The assay is performed by combining three components: DNA-tagged kinase; immobilized ligand; and a test compound. The ability of the test compound to compete with the immobilized ligand is measured via quantitative PCR of the DNA tag.
(§2) For most assays, kinase-tagged T7 phage strains were prepared in an E. coli host derived from the BL21 strain. E. coli were grown to log-phase and infected with T7 phage and incubated with shaking at 32° C. until lysis. The lysates were centrifuged and filtered to remove cell debris. The remaining kinases were produced in HEK-293 cells and subsequently tagged with DNA for qPCR detection. Streptavidin-coated magnetic beads were treated with biotinylated small molecule ligands for 30 minutes at room temperature to generate affinity resins for kinase assays. The liganded beads were blocked with excess biotin and washed with blocking buffer (SeaBlock (Pierce), 1% BSA, 0.05% Tween 20, 1 mM DTT) to remove unbound ligand and to reduce non-specific binding. Binding reactions were assembled by combining kinases, liganded affinity beads, and test compounds in 1× binding buffer (20% SeaBlock, 0.17×PBS, 0.05% Tween 20, 6 mM DTT). Test compounds were prepared as 111× stocks in 100% DMSO. Kds were determined using an 11-point 3-fold compound dilution series with three DMSO control points. All compounds for Kd measurements are distributed by acoustic transfer (non-contact dispensing) in 100% DMSO. The compounds were then diluted directly into the assays such that the final concentration of DMSO was 0.9%. All reactions performed in polypropylene 384-well plate. Each was a final volume of 0.02 ml. The assay plates were incubated at room temperature with shaking for 1 hour and the affinity beads were washed with wash buffer (1×PBS, 0.05% Tween 20). The beads were then re-suspended in elution buffer (1×PBS, 0.05% Tween 20, 0.5 μM non-biotinylated affinity ligand) and incubated at room temperature with shaking for 30 minutes. The kinase concentration in the eluates was measured by qPCR.
(§3) An 11-point 3-fold serial dilution of each test compound was prepared in 100% DMSO at 100× final test concentration and subsequently diluted to 1× in the assay (final DMSO concentration=1%). Most Kds were determined using a compound top concentration=30,000 nM. If the initial Kd determined was <0.5 nM (the lowest concentration tested), the measurement was repeated with a serial dilution starting at a lower top concentration.
(§4) Binding constants (Kds) were calculated with a standard dose-response curve using the Hill equation: […]
(§5) The Hill Slope was set to −1. Curves were fitted using a non-linear least square fit with the Levenberg-Marquardt algorithm.

[3] = molecular target: T2, PIK3CD (Homo sapiens, UniProt O00329); test: KINOMEscan competition binding assay (DiscoverX); settings: DiscoveRx gene symbol PIK3CD (b251 prints: PI3Kγ)
T2 construct: purchased DiscoverX (KINOMEscan); host or cells: E. coli BL21-derived host (T7 phage) or HEK-293
T2 sequence (O00329 1-1044): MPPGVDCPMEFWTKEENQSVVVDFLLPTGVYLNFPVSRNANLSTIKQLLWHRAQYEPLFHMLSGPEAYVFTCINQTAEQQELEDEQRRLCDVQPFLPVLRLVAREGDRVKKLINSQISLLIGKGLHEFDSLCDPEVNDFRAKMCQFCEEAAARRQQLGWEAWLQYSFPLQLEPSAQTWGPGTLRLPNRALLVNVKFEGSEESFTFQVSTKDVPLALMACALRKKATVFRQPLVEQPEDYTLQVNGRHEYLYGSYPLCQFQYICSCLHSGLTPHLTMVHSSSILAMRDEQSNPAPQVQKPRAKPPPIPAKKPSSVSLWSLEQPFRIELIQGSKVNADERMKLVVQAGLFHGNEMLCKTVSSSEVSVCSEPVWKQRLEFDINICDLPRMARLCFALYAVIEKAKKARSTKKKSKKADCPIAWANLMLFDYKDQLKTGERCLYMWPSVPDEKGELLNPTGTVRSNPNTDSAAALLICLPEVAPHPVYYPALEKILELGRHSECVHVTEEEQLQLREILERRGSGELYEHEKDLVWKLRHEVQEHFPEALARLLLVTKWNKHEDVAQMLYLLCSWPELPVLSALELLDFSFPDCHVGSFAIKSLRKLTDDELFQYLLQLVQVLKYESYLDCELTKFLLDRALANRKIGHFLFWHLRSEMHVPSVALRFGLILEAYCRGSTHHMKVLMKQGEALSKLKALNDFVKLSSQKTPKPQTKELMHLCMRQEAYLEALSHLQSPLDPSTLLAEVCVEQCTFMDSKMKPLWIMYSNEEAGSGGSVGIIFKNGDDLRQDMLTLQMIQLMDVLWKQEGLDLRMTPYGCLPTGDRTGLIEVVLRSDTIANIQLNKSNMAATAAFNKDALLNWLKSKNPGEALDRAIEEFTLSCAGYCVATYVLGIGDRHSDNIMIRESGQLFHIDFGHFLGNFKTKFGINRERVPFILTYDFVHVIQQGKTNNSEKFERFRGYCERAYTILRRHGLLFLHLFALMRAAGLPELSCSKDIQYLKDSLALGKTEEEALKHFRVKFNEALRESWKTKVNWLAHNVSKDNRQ
Method: as §1, §2, §3, §4, §5

[4] = molecular target: T3, PIK3CA (PI3Kα) (Homo sapiens, UniProt P42336); test: KINOMEscan competition binding assay (DiscoverX); settings: DiscoveRx gene symbol PIK3CA (PI3Kα)
T3 construct: purchased DiscoverX (KINOMEscan); host or cells: E. coli BL21-derived host (T7 phage) or HEK-293
Method: as §1, §2, §3, §4, §5

[5] = molecular target: T4, PIK3CB (PI3Kβ) (Homo sapiens, UniProt P42338); test: KINOMEscan competition binding assay (DiscoverX); settings: DiscoveRx gene symbol PIK3CB (PI3Kβ)
T4 construct: purchased DiscoverX (KINOMEscan); host or cells: E. coli BL21-derived host (T7 phage) or HEK-293
Method: as §1, §2, §3, §4, §5

[6] = tested on: T-ALL; test: Mice with genetically induced T-ALL expressing luciferase treated with DWL-PI3K-3; assay type: in vivo; settings: 10 mg/kg every 12 h for 7 days; luciferin signal and Ki67/thy1.2 positive population
[7] = Pharmacokinetics relative to CAL-130; assay type: in vivo

T4 sequence (P42338 whole entry): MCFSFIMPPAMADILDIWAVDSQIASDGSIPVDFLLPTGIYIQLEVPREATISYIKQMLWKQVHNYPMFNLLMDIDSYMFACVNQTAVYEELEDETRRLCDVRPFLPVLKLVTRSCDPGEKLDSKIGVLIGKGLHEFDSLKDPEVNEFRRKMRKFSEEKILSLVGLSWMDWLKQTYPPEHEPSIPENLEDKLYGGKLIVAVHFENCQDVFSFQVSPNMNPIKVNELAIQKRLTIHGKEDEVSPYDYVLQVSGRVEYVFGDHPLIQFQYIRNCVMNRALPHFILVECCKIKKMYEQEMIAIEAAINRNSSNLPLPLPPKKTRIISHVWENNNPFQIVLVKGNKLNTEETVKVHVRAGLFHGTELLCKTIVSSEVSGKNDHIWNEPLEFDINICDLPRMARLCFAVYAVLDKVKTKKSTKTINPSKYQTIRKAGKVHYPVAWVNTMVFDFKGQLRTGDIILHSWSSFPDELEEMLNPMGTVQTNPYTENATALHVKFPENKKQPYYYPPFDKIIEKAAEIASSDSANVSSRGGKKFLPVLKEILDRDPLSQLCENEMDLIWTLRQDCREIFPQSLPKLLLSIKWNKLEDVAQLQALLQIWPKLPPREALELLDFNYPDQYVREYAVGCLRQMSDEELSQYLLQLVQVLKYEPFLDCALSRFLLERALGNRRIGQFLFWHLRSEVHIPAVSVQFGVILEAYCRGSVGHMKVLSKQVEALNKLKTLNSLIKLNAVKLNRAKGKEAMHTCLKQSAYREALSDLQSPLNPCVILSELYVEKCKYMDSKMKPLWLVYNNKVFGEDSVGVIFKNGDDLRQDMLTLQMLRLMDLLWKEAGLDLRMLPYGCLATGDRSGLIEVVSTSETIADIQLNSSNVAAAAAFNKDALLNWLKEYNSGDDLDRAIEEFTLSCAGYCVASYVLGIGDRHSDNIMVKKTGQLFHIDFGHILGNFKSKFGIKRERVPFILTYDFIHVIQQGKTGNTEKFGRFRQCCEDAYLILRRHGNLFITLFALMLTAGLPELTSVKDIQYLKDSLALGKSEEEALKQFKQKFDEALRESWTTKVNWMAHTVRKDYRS
T3 sequence (P42336 whole entry): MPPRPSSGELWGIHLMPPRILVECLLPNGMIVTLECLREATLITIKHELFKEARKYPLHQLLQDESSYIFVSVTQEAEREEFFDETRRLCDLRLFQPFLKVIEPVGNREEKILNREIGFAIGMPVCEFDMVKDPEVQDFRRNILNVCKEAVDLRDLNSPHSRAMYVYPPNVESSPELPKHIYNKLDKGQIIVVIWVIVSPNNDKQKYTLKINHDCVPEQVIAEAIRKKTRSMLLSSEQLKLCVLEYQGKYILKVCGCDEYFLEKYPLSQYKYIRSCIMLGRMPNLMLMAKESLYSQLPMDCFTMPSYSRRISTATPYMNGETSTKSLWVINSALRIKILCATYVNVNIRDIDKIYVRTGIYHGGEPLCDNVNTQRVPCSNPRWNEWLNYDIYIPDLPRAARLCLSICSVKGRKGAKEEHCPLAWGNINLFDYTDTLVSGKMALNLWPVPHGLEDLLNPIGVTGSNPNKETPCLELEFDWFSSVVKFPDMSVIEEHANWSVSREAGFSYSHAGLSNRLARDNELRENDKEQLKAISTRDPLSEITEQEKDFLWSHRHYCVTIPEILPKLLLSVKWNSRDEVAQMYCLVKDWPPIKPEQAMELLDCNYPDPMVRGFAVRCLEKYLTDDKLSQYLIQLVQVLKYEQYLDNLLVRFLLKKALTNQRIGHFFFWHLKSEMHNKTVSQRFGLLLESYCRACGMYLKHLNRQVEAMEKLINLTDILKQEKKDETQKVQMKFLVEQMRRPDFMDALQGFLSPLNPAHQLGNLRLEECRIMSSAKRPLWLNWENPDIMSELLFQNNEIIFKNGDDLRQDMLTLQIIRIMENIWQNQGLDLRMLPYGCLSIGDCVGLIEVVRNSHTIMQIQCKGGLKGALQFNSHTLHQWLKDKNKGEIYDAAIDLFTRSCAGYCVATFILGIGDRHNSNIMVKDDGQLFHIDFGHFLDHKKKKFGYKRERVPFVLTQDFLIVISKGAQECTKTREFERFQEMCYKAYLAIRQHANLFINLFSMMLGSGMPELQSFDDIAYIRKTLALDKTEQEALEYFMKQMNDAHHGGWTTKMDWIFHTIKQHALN
T1 sequence (P48736 whole entry): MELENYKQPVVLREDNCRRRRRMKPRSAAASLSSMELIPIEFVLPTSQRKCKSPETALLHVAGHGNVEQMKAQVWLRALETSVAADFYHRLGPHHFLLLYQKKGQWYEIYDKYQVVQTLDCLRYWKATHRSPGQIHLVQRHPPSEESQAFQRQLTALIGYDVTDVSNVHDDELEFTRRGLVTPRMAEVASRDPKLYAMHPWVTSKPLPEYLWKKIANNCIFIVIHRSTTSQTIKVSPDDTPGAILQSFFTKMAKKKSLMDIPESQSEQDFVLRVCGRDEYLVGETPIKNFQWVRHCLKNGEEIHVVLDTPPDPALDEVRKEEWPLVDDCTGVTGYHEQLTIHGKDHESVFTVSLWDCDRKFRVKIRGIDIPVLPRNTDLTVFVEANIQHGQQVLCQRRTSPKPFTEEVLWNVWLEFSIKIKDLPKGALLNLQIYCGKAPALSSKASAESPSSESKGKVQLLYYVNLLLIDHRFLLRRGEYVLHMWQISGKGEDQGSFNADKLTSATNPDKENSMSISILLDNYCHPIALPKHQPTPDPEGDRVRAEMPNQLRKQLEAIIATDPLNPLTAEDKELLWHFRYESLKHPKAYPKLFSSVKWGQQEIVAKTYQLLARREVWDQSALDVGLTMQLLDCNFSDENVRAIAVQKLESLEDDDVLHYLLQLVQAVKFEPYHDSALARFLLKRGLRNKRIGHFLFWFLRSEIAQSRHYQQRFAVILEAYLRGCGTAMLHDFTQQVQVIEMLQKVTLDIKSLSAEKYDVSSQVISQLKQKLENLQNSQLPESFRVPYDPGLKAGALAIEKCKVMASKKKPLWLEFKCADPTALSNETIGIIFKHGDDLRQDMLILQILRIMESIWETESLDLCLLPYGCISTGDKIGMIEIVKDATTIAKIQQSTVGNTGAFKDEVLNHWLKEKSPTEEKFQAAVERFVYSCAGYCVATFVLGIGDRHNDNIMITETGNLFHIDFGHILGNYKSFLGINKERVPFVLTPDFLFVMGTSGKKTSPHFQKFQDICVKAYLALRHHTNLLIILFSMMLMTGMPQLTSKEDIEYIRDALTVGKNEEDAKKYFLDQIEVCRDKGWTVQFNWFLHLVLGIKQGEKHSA

Kd [2]: 0.12 nM
Kd [3]: 0.14 nM
Kd [4]: 4 nM
Kd [5]: 0.084 nM
pharmacokinetics [7]: better pharmacokinetics
SMILES: C[C@H](Nc1nc(N)nc(N)c1C#N)c1cc2cccc(Cl)c2c(=O)n1-c1ccccc1 [DWL-PI3K-3, (S)-2,4-diamino-6-((1-(8-chloro-1-oxo-2-phenyl-1,2-dihydroisoquinolin-3-yl)ethyl)amino)pyrimidine-5-carbonitrile]
efficacy in inducing T-ALL cell death relative to CAL-130 ([1]; cultured T-ALL cells): greater efficacy than CAL-130
amount needed relative to CAL-130 to achieve a similar reduction in tumor cell survival ([1]; relative to CAL-130): about 10 fold less
tumor burden [6]: significant reduction in tumor burden
